Values of other authors in publication PMC10925453, “Selective Bias Virtual Screening for Discovery of Promising Antimalarial Candidates targeting Plasmodium N-Myristoyltransferase” (Research Square, 2024).

Assays:
[1] = test system: Plasmodium NMT; set-up: method as in earlier work; settings: ligand of the PDB structure, activity against Plasmodium NMT; ref PDB
[2] = test system: human isoform 1; settings: no reference given

IC50 [2] | SMILES | Ki [1]
 | Cc1nn(C)c(C)c1NS(=O)(=O)c1c(Cl)cc(-c2ccnc(N3CCNCC3)c2)cc1Cl [2YND] | 32 nM
60 ± 3 nM | Cc1nn(C)c(C)c1Cc1nnc(-c2sc3ccccc3c2OC2CCNCC2)o1 [2YNE, 2-(3-piperidin-4-yloxy-1-benzothiophen-2-yl)-5-[(1,3,5-trimethylpyrazol-4-yl)methyl]-1,3,4-oxadiazole] | 2.7 nM
